Experimental data from patent publication US9393311B2, “Intravaginal ring comprising polyurethane composition for drug delivery” (DSM IP ASSETS B.V., priority 2010, dated 2016).
Entries after “also recorded” stand apart in the source; their conditions may differ.

Assay: UC781 drug stability in compounded polyurethane after extrusion and accelerated storage
Type: physicochemical
Conditions: 4-5 week, 60° C., with and without additives
Description: The drug stability in compounded lot #1100032 was also studied after extrusion and under accelerated storage conditions, with and without various antioxidants (Table 3).

Q: With `CC(C)=CCOc1cc(NC(=S)c2ccoc2C)ccc1Cl` [UC781] as the molecule, how does the “UC781 stability in compounded lot #1100032” value read?
A: Irganox is incompatible with UC781; also recorded: best stability with BHT, EDTA or without any additives
